Key:
Assay in all cases: Test C pre/postemergence
Assay type in all cases: in vivo
[1] = test system: Surinam grass (Brachiaria decumbens); settings: for Surinam Grass plant response rating: scale 0 to 100 (0 no effect, 100 complete control)
Outline: (§1)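 Rating scale 0–100: 0 means no effect, 100 complete control; taken visually 12 to 14 days post-treatment versus controls. Pre- and postemergence greenhouse applications, postemergence at 1- to 4-leaf stage, non-phytotoxic solvent with surfactant as carrier.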

[2] = test system: cocklebur (Xanthium strumarium); settings: for Cocklebur plant response rating: scale 0 to 100 (0 no effect, 100 complete control)
Outline: as §1

[3] = test system: common (oilseed) sunflower (Helianthus annuus); settings: Preemergence
Outline: as §1

[4] = test system: common ragweed (Ambrosia elatior); settings: for Ragweed plant response rating: scale 0 to 100 (0 no effect, 100 complete control)
Outline: as §1

corn (Zea mays) = settings: for Corn plant response rating: scale 0 to 100 (0 no effect, 100 complete control)
Outline: as §1

[5] = test system: crabgrass (Digitaria sanguinalis); settings: for Crabgrass plant response rating: scale 0 to 100 (0 no effect, 100 complete control)
Outline: as §1

[6] = test system: goosegrass (Eleusine indica); settings: for Goosegrass plant response rating: scale 0 to 100 (0 no effect, 100 complete control)
Outline: as §1

kochia (Kochia scoparia) = settings: for Kochia plant response rating: scale 0 to 100 (0 no effect, 100 complete control)
Outline: as §1

[7] = test system: lambsquarters (Chenopodium album); settings: for Lambsquarters plant response rating: scale 0 to 100 (0 no effect, 100 complete control); for Plant response rating, Lambsquarters: scale 0 to 100
Outline: as §1

[8] = test system: pigweed (Amaranthus retroflexus); settings: for Pigweed plant response rating: scale 0 to 100 (0 no effect, 100 complete control)
Outline: as §1

[9] = test system: velvetleaf (Abutilon theophrasti); settings: for Velvetleaf plant response rating: scale 0 to 100 (0 no effect, 100 complete control)
Outline: as §1

[10] = test system: yellow nutsedge (Cyperus esculentus); settings: for Nutsedge, Yellow plant response rating: scale 0 to 100 (0 no effect, 100 complete control)
Outline: as §1

[11] = Postemergence, 250 g ai/ha, scale 0 to 100
[12] = Postemergence, 500 g ai/ha, scale 0 to 100
[13] = Preemergence, 62 g ai/ha, scale 0 to 100, 0 no effect, 100 complete control
[14] = Preemergence, 125 g ai/ha, scale 0 to 100
[15] = Preemergence, 250 g ai/ha, scale 0 to 100
[16] = Preemergence, 500 g ai/ha, scale 0 to 100

Nc1nc(C2CC2)nc(C=NO)c1Br [Compound 27]
5: Ragweed plant response rating ([4]; Postemergence, 62 g ai/ha) | Plant response rating, Crabgrass [5, 11] | Pigweed plant response rating ([8]; Postemergence, 62 g ai/ha)
20: Plant response rating, Surinam Grass [1, 15] | Cocklebur plant response rating ([2]; Postemergence, 62 g ai/ha) | Plant response rating, Sunflower ([3]; 125 g ai/ha, scale 0 to 100) | Ragweed plant response rating ([4]; Postemergence, 125 g ai/ha) | Plant response rating, Ragweed [4, 13] | Plant response rating, Goosegrass [6, 16] | Kochia plant response rating (kochia (Kochia scoparia); Postemergence, 125 g ai/ha) | Lambsquarters plant response rating ([7]; Postemergence, 62 g ai/ha) | Lambsquarters plant response rating ([7]; Postemergence, 125 g ai/ha) | Pigweed plant response rating ([8]; Postemergence, 125 g ai/ha) | Plant response rating, Pigweed [8, 13] | Plant response rating, Nutsedge, Yellow [10, 16]
80: Plant response rating, Pigweed [8, 12] | Plant response rating, Pigweed [8, 14]
30: Plant response rating, Surinam Grass [1, 16] | Plant response rating, Crabgrass [5, 12] | Plant response rating, Kochia (kochia (Kochia scoparia); [15]) | Plant response rating, Pigweed [8, 11] | Plant response rating, Velvetleaf [9, 12]
85: Plant response rating, Ragweed [4, 15] | Plant response rating, Crabgrass [5, 16]
15: Plant response rating, Corn (corn (Zea mays); [15])
65: Plant response rating, Ragweed [4, 14]
60: Plant response rating, Kochia (kochia (Kochia scoparia); [12])
0: Surinam Grass plant response rating ([1]; Postemergence, 62 g ai/ha) | Surinam Grass plant response rating ([1]; Postemergence, 125 g ai/ha) | Plant response rating, Surinam Grass [1, 11] | Plant response rating, Surinam Grass [1, 12] | Plant response rating, Surinam Grass [1, 13] | Plant response rating, Surinam Grass [1, 14] | Plant response rating, Cocklebur [2, 13] | Plant response rating, Sunflower ([3]; 62 g ai/ha, scale 0 to 100, 0 no effect, 100 complete control) | Corn plant response rating (corn (Zea mays); Postemergence, 62 g ai/ha) | Corn plant response rating (corn (Zea mays); Postemergence, 125 g ai/ha) | Plant response rating, Corn (corn (Zea mays); [11]) | Plant response rating, Corn (corn (Zea mays); [12]) | Plant response rating, Corn (corn (Zea mays); [13]) | Crabgrass plant response rating ([5]; Postemergence, 62 g ai/ha) | Crabgrass plant response rating ([5]; Postemergence, 125 g ai/ha) | Plant response rating, Crabgrass [5, 13] | Plant response rating, Crabgrass [5, 14] | Plant response rating, Crabgrass [5, 15] | Goosegrass plant response rating ([6]; Postemergence, 62 g ai/ha) | Goosegrass plant response rating ([6]; Postemergence, 125 g ai/ha) | Plant response rating, Goosegrass [6, 11] | Plant response rating, Goosegrass [6, 12] | Plant response rating, Goosegrass [6, 13] | Plant response rating, Goosegrass [6, 14] | Plant response rating, Goosegrass [6, 15] | Kochia plant response rating (kochia (Kochia scoparia); Postemergence, 62 g ai/ha) | Plant response rating, Kochia (kochia (Kochia scoparia); [13]) | Plant response rating, Kochia (kochia (Kochia scoparia); [14]) | Velvetleaf plant response rating ([9]; Postemergence, 62 g ai/ha) | Velvetleaf plant response rating ([9]; Postemergence, 125 g ai/ha) | Plant response rating, Velvetleaf [9, 11] | Plant response rating, Velvetleaf [9, 13] | Plant response rating, Velvetleaf [9, 14] | Nutsedge, Yellow plant response rating ([10]; Postemergence, 62 g ai/ha) | Nutsedge, Yellow plant response rating ([10]; Postemergence, 125 g ai/ha) | Plant response rating, Nutsedge, Yellow [10, 11] | Plant response rating, Nutsedge, Yellow [10, 12] | Plant response rating, Nutsedge, Yellow [10, 13] | Plant response rating, Nutsedge, Yellow [10, 14] | Plant response rating, Nutsedge, Yellow [10, 15]
25: Cocklebur plant response rating ([2]; Postemergence, 125 g ai/ha) | Plant response rating, Cocklebur [2, 11] | Plant response rating, Cocklebur [2, 12] | Plant response rating, Corn (corn (Zea mays); [16]) | Plant response rating, Lambsquarters ([7]; Postemergence, 250 g ai/ha)
40: Plant response rating, Ragweed [4, 11] | Plant response rating, Lambsquarters ([7]; Preemergence, 125 g ai/ha)
100: Plant response rating, Lambsquarters ([7]; Preemergence, 500 g ai/ha) | Plant response rating, Pigweed [8, 16]
10: Plant response rating, Corn (corn (Zea mays); [14])
50: Plant response rating, Cocklebur [2, 14] | Plant response rating, Ragweed [4, 12] | Plant response rating, Kochia (kochia (Kochia scoparia); [11]) | Plant response rating, Lambsquarters ([7]; Postemergence, 500 g ai/ha) | Plant response rating, Velvetleaf [9, 15]
90: Plant response rating, Sunflower ([3]; 250 g ai/ha, scale 0 to 100) | Plant response rating, Lambsquarters ([7]; Preemergence, 250 g ai/ha) | Plant response rating, Pigweed [8, 15]
45: Plant response rating, Kochia (kochia (Kochia scoparia); [16])
95: Plant response rating, Cocklebur [2, 16] | Plant response rating, Sunflower ([3]; 500 g ai/ha, scale 0 to 100) | Plant response rating, Ragweed [4, 16]
70: Plant response rating, Cocklebur [2, 15] | Plant response rating, Velvetleaf [9, 16]
